Measurements: PubChem BioAssay (NCI)
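These data come from cells grown in 96-well plates and exposed to compound for 48 hours at five concentrations. TGI: concentration producing complete growth inhibition.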

Tests used:
Test in all cases: DTP human tumour cell line panel, 48 h
[1] = system: DMS 114 small cell lung
[2] = system: DMS 273 small cell lung
[3] = system: HCT-116 colon
[4] = system: HCT-15 colon
[5] = system: HL-60(TB) leukemia
[6] = system: HOP-18 NSCLC
[7] = system: KM20L2 colon
[8] = system: LXFL 529 NSCLC
[9] = system: M14 melanoma
[10] = system: M19-MEL melanoma
[11] = system: SN12C renal
[12] = system: U251 CNS
[13] = system: UO-31 renal
[14] = system: OVCAR-5 ovarian
[15] = system: XF 498 CNS
[16] = system: DLD-1 colon
[17] = system: A498 renal
[18] = system: HS 578T breast
[19] = system: MCF7 breast

SMILES | TGI [1] | TGI [2] | TGI [3] | TGI [4] | TGI [5] | TGI [6] | TGI [7] | TGI [8] | TGI [9] | TGI [10] | TGI [11] | TGI [12] | TGI [13] | TGI [14] | TGI [15] | TGI [16] | TGI [17] | TGI [18] | TGI [19]
OC12c3ccccc3C1CCCCC2N1CCCC1 (stereo unspecified) | > 100 µM | > 100 µM | > 100 µM | > 100 µM | > 100 µM | > 100 µM | > 100 µM | > 100 µM | > 100 µM | > 100 µM | > 100 µM | > 100 µM | > 100 µM | – | – | – | – | – | –
COc1ccc(CNc2cnc3cc(N)ccc3n2)cc1 | > 100 µM | > 100 µM | > 100 µM | > 100 µM | > 100 µM | – | > 100 µM | > 100 µM | > 100 µM | > 100 µM | > 100 µM | > 100 µM | > 100 µM | > 100 µM | > 100 µM | – | – | – | –
COc1cc(/C=C2\C(=O)N(C(=O)Cc3ccccc3)N=C2C)cc(OC)c1OC | > 100 µM | > 100 µM | > 100 µM | > 100 µM | > 100 µM | > 100 µM | – | – | > 100 µM | > 100 µM | > 100 µM | – | > 100 µM | > 100 µM | > 100 µM | > 100 µM | – | – | –
CC(C)(O)C(O)COc1c2c(cc3oc(=O)ccc13)OCO2 (stereo unspecified) | > 100 µM | > 100 µM | > 100 µM | > 100 µM | > 100 µM | > 100 µM | > 100 µM | > 100 µM | > 100 µM | > 100 µM | > 100 µM | > 100 µM | > 100 µM | > 100 µM | > 100 µM | > 100 µM | > 100 µM | – | –
COc1cccc2c1c1ccc3c(c1n2C)C(=O)C=CC3=O | 43.4 µM | 32.2 µM | 27.2 µM | 31.8 µM | > 100 µM | 29 µM | > 100 µM | 24.4 µM | 27.7 µM | 2.52 µM | 41.5 µM | > 100 µM | 44.2 µM | > 100 µM | 29.4 µM | 31.2 µM | > 100 µM | – | –
O=C1NC2c3c(I)sc(I)c3C(=O)C2O1 (stereo unspecified) | – | – | 6.87 µM | 3.63 µM | > 31.6 µM | – | – | – | 5.23 µM | – | 51.5 µM | > 50 µM | 12.2 µM | 28.3 µM | – | – | 22.4 µM | 35.1 µM | 13.7 µM
C[C@H](C1CC(C)(O)C(C)(O)C(O)O1)[C@H]1CC[C@H]2[C@@H]3[C@@H]4O[C@@H]4[C@@]4(O)CC=CC(=O)[C@]4(C)[C@H]3CC[C@]12C (stereo partly specified) | – | – | > 50 µM | > 50 µM | > 50 µM | – | – | – | > 50 µM | – | > 50 µM | > 50 µM | > 50 µM | > 50 µM | – | – | > 50 µM | 17.4 µM | > 50 µM
N#CC12C(=O)N3C(=NC(c4ccco4)NC3c3ccco3)C1(C#N)C(c1ccco1)NC1=C2CCCC1 (stereo unspecified) | – | – | > 100 µM | > 100 µM | > 100 µM | – | – | – | > 100 µM | – | > 100 µM | > 100 µM | > 100 µM | > 100 µM | – | – | > 100 µM | > 100 µM | > 100 µM
C=C(Cl)C(Cl)(CBr)CCC(Br)C(C)(C)Br (stereo unspecified) | – | – | 4.04 µM | 9.35 µM | 6.02 µM | – | – | – | 33.6 µM | – | 19.7 µM | 3.37 µM | 20.1 µM | 25.4 µM | – | – | 23.3 µM | 12.1 µM | 3.34 µM
CCOC(=O)c1nc2cc(C(F)(F)F)ccc2nc1Oc1ccc(C#N)cc1 | – | – | > 100 µM | > 100 µM | > 100 µM | – | – | – | > 100 µM | – | > 100 µM | > 100 µM | > 100 µM | > 100 µM | – | – | > 100 µM | > 100 µM | > 100 µM
O=C1C2C(C(=O)N1c1ccccc1)C1(c3ccccc3)CCC2(C(=O)c2ccccc2)O1 (stereo unspecified) | – | – | > 10 µM | > 10 µM | > 10 µM | – | – | – | > 10 µM | – | > 10 µM | > 10 µM | > 10 µM | > 10 µM | – | – | > 10 µM | > 10 µM | > 10 µM
CC(C)[N+]([O-])(CCCNc1c2ccccc2nc2cccc([N+](=O)[O-])c12)C(C)C | – | – | 3.94 µM | 1.58 µM | 2.69 µM | – | – | – | 0.305 µM | – | 0.862 µM | 1.19 µM | 1.35 µM | 1.31 µM | – | – | 0.289 µM | 0.402 µM | 14.9 µM
CC1=NN(c2nc(N)nc(CN3CCOCC3)n2)C(C)(C)C1 | – | – | > 100 µM | > 100 µM | 30.1 µM | – | – | – | > 100 µM | – | > 100 µM | > 100 µM | 33.3 µM | > 100 µM | – | – | > 100 µM | > 100 µM | > 100 µM
Cc1ccc(CC(Cc2ccccc2C)C(=O)O)c(C(=O)O)c1 (stereo unspecified) | – | – | > 100 µM | > 100 µM | > 100 µM | – | – | – | > 100 µM | – | > 100 µM | > 100 µM | > 100 µM | > 100 µM | – | – | > 100 µM | > 100 µM | > 100 µM
COc1ccc(C(CC2(c3ccc(OC)cc3)SCCCS2)NC(C)=O)cc1 (stereo unspecified) | – | – | > 100 µM | > 100 µM | > 100 µM | – | – | – | > 100 µM | – | 96.8 µM | > 100 µM | > 100 µM | > 100 µM | – | – | > 100 µM | > 100 µM | > 100 µM
COc1cc(C2C(Cl)C(=O)N2NC(=O)Cc2ccccc2)cc(Br)c1O (stereo unspecified) | > 100 µM | > 100 µM | > 100 µM | > 100 µM | > 100 µM | > 100 µM | > 100 µM | > 100 µM | > 100 µM | > 100 µM | > 100 µM | > 100 µM | > 100 µM | > 100 µM | > 100 µM | > 100 µM | – | – | –
CCOC(=O)C1(C#N)OC(=O)c2cnccc21 (stereo unspecified) | – | – | > 100 µM | > 100 µM | > 100 µM | – | – | – | > 100 µM | – | > 100 µM | > 100 µM | > 100 µM | > 100 µM | – | – | > 100 µM | > 100 µM | > 100 µM
COc1ccc2c(c1)Cc1c(NCCN(C)C)ccc(C(=O)NCCCN(C)CCCNC(=O)c3ccc(NCCN(C)C)c4c3Nc3ccc(OC)cc3C4)c1N2 | – | – | 0.239 µM | > 74.3 µM | 1.17 µM | – | – | – | 1.79 µM | – | 0.624 µM | 1.1 µM | 14.2 µM | 0.631 µM | – | – | 0.833 µM | 0.332 µM | 0.615 µM
Cc1ccc(C)n1-c1ccccc1C1C=Cn2c(=O)nnc3c(OC(C)C)c(OC(C)C)c(O)c1c32 (stereo unspecified) | – | – | 70.1 µM | 60.4 µM | 59.6 µM | – | – | – | > 100 µM | – | > 100 µM | > 100 µM | > 100 µM | > 100 µM | – | – | > 100 µM | > 100 µM | > 100 µM
COc1ccc(S(=O)(=O)N2C(=O)CCC2C(=O)NC(N)=O)cc1 (stereo unspecified) | – | – | > 100 µM | > 100 µM | > 100 µM | – | – | – | > 100 µM | – | > 100 µM | > 100 µM | > 100 µM | > 100 µM | – | – | > 100 µM | > 100 µM | > 100 µM
CCOC(=O)c1cc(C2CCN(c3ccccc3)C2=O)c(/C(O)=C/C(C)=O)[nH]1 (stereo unspecified) | – | – | > 100 µM | > 100 µM | 76 µM | – | – | – | > 100 µM | – | > 100 µM | > 100 µM | > 100 µM | > 100 µM | – | – | > 100 µM | > 100 µM | > 100 µM
CC[C@]12C=CCN3CC[C@@]4(c5cc(N=O)c(OC)cc5N(C)[C@H]4[C@@](O)(C(=O)OC)[C@@H]1OC(C)=O)[C@@H]32 | – | – | > 100 µM | > 100 µM | > 100 µM | – | – | – | > 100 µM | – | > 100 µM | 33.3 µM | > 100 µM | > 100 µM | – | – | > 100 µM | > 100 µM | > 100 µM
